Where two headings read alike, the source gives them in different places.
Legend:
[1] = Storage stability of malathion prepared by the process of the invention, HPLC after storage (Example 7, Table IV); type: physicochemical
Experimental: The malathion prepared by the process of the invention was tested for storage stability. Malathion prepared by the process of the invention was stored under a variety of different temperature and humidity conditions for up to three (3) months. […] The purity of the sample was determined after storage using HPLC.
Table IV presents the analytical data showing storage of two, different batches of malathion after storage under a variety of different conditions.
MeOOSPO, MeOSSPO, malaxon, MeOOSPS, diethyl fumarate, dimethyl malathion, methyl malathion, O,O-methyl, ethyl S-(1,2-dicarboethoxy)ethyl phosphorodithioate, tetraethyl dithiosuccinate, isomalathion, malathion carboxylic acids, mercaptosuccinate and the tetraethyl thiodisuccinate were assayed for by HPLC. The mobile phase was a mixture of water, acetonitrile and methanol (480:370:150) and one drop of 85% phosphoric acid for each […] of mobile phase. Method validation was performed and system reproducibility, linearity, repeatability, intermediate precision, recovery of related compounds and sensitivity were assessed according to standard methology (U.S. Pharmacopeia, 2004, U.S. Pharmacopeial Convention, Inc., 12601 Twinbrook Parkway, Rockville, Md. 20852). If necessary, the mobile phase composition and/or flow rate were adjusted to meet the chromatographic parameters.

[2] = can cause death from hypoxia; cited from earlier work
[3] = biological target: acetylcholinesterase (Homo sapiens, UniProt P22303); conditions: cited from earlier work
[4] = system: people; conditions: after spraying during insect eradication programs; cited from earlier work
[5] = system: cholinesterase enzymes; conditions: cited from earlier work
[6] = cited from earlier work
[7] = system: mice; conditions: after storage for 6 months at 40° C.; cited from earlier work
[8] = Storage at 25° C., 60% relative humidity for 3 months
[9] = Storage at 30° C. and 60% relative humidity for 3 months
[10] = Storage at 40° C. and 75% relative humidity for 3 months

Sequence of acetylcholinesterase (P22303 32-614): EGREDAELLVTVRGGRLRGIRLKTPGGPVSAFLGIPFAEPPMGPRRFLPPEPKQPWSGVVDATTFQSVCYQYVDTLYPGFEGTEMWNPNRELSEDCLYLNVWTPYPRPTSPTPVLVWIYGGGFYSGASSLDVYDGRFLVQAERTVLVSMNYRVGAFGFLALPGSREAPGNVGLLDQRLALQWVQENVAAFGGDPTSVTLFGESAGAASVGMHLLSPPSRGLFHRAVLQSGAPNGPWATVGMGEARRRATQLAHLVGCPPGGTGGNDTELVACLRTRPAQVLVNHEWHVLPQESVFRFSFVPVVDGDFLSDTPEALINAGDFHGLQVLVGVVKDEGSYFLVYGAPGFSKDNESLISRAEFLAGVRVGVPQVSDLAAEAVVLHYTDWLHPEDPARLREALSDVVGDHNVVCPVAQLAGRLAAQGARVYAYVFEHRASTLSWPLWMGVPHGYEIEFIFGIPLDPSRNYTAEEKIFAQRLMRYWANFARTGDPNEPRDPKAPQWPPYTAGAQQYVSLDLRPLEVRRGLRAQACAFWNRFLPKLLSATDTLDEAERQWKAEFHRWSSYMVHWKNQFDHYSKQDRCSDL

CCOC(=O)CC(SP(=S)(OC)OC)C(=O)OCC (centres unmarked) [Batch I, [(dimethoxyphosphinothioyl)thio]butanedioic acid diethyl ester]
Diethyl fumarate in malathion ([1]; Baseline, time 0): <0.01 % (w/w) | Dimethyl malathion in malathion ([1]; Baseline, time 0): <0.02 % (w/w) | Malaoxon in malathion ([1]; Baseline, time 0): <0.05 % (w/w) | Malathion Purity ([1]; Baseline, time 0): 99.5 % (w/w) | MeOOSPO in malathion ([1]; Baseline, time 0): <0.04 % (w/w) | MeOOSPS in malathion ([1]; Baseline, time 0): 0.1 % (w/w) | MeOSSPO in malathion ([1]; Baseline, time 0): <0.02 % (w/w) | Methyl malathion in malathion ([1]; Baseline, time 0): 0.06 % (w/w) | Diethyl fumarate in malathion ([1]; Storage at 5° C. for 3 months): <0.01 % (w/w) | Dimethyl malathion in malathion ([1]; Storage at 5° C. for 3 months): <0.02 % (w/w) | Malaoxon in malathion ([1]; Storage at 5° C. for 3 months): <0.02 % (w/w) | Malathion Purity ([1]; Storage at 5° C. for 3 months): 99.7 % (w/w) | MeOOSPO in malathion ([1]; Storage at 5° C. for 3 months): <0.04 % (w/w) | MeOOSPS in malathion ([1]; Storage at 5° C. for 3 months): 0.1 % (w/w) | MeOSSPO in malathion ([1]; Storage at 5° C. for 3 months): <0.02 % (w/w) | Methyl malathion in malathion ([1]; Storage at 5° C. for 3 months): 0.06 % (w/w) | Diethyl fumarate in malathion [1, 8]: <0.01 % (w/w) | Dimethyl malathion in malathion [1, 8]: <0.02 % (w/w) | Malaoxon in malathion [1, 8]: <0.02 % (w/w) | Malathion Purity [1, 8]: 99.0 % (w/w) | MeOOSPO in malathion [1, 8]: <0.04 % (w/w) | MeOOSPS in malathion [1, 8]: 0.1 % (w/w) | MeOSSPO in malathion [1, 8]: <0.02 % (w/w) | Methyl malathion in malathion [1, 8]: 0.06 % (w/w) | Diethyl fumarate in malathion [1, 9]: <0.01 % (w/w) | Dimethyl malathion in malathion [1, 9]: <0.02 % (w/w) | Malaoxon in malathion [1, 9]: <0.02 % (w/w) | Malathion Purity [1, 9]: 99.0 % (w/w) | MeOOSPO in malathion [1, 9]: <0.04 % (w/w) | MeOOSPS in malathion [1, 9]: 0.1 % (w/w) | MeOSSPO in malathion [1, 9]: <0.02 % (w/w) | Methyl malathion in malathion [1, 9]: 0.06 % (w/w) | Diethyl fumarate in malathion [1, 10]: <0.02 % (w/w) | Dimethyl malathion in malathion [1, 10]: <0.02 % (w/w) | Malaoxon in malathion [1, 10]: <0.05 % (w/w) | Malathion Purity [1, 10]: 97.5 % (w/w) | MeOOSPO in malathion [1, 10]: 0.05 % (w/w) | MeOOSPS in malathion [1, 10]: 0.2 % (w/w) | MeOSSPO in malathion [1, 10]: <0.02 % (w/w) | Methyl malathion in malathion [1, 10]: 0.06 % (w/w)

CCOC(=O)CC(SP(=S)(OC)OC)C(=O)OCC (centres unmarked) [Batch II, [(dimethoxyphosphinothioyl)thio]butanedioic acid diethyl ester]
Diethyl fumarate in malathion ([1]; Baseline, time 0): <0.06 % (w/w) | Dimethyl malathion in malathion ([1]; Baseline, time 0): <0.02 % (w/w) | Malaoxon in malathion ([1]; Baseline, time 0): <0.05 % (w/w) | Malathion Purity ([1]; Baseline, time 0): 99.5 % (w/w) | MeOOSPO in malathion ([1]; Baseline, time 0): <0.04 % (w/w) | MeOOSPS in malathion ([1]; Baseline, time 0): 0.09 % (w/w) | MeOSSPO in malathion ([1]; Baseline, time 0): <0.02 % (w/w) | Methyl malathion in malathion ([1]; Baseline, time 0): 0.08 % (w/w) | Diethyl fumarate in malathion ([1]; Storage at 5° C. for 3 months): <0.01 % (w/w) | Dimethyl malathion in malathion ([1]; Storage at 5° C. for 3 months): <0.02 % (w/w) | Malaoxon in malathion ([1]; Storage at 5° C. for 3 months): <0.05 % (w/w) | Malathion Purity ([1]; Storage at 5° C. for 3 months): 99.7 % (w/w) | MeOOSPO in malathion ([1]; Storage at 5° C. for 3 months): <0.04 % (w/w) | MeOOSPS in malathion ([1]; Storage at 5° C. for 3 months): 0.1 % (w/w) | MeOSSPO in malathion ([1]; Storage at 5° C. for 3 months): <0.09 % (w/w) | Methyl malathion in malathion ([1]; Storage at 5° C. for 3 months): 0.07 % (w/w) | Diethyl fumarate in malathion [1, 8]: <0.01 % (w/w) | Dimethyl malathion in malathion [1, 8]: <0.02 % (w/w) | Malaoxon in malathion [1, 8]: <0.05 % (w/w) | Malathion Purity [1, 8]: 99.4 % (w/w) | MeOOSPO in malathion [1, 8]: <0.04 % (w/w) | MeOOSPS in malathion [1, 8]: 0.09 % (w/w) | MeOSSPO in malathion [1, 8]: <0.02 % (w/w) | Methyl malathion in malathion [1, 8]: 0.07 % (w/w) | Diethyl fumarate in malathion [1, 9]: <0.01 % (w/w) | Dimethyl malathion in malathion [1, 9]: <0.02 % (w/w) | Malaoxon in malathion [1, 9]: <0.05 % (w/w) | Malathion Purity [1, 9]: 99.1 % (w/w) | MeOOSPO in malathion [1, 9]: <0.04 % (w/w) | MeOOSPS in malathion [1, 9]: 0.1 % (w/w) | MeOSSPO in malathion [1, 9]: <0.02 % (w/w) | Methyl malathion in malathion [1, 9]: 0.08 % (w/w) | Diethyl fumarate in malathion [1, 10]: <0.02 % (w/w) | Dimethyl malathion in malathion [1, 10]: <0.02 % (w/w) | Malaoxon in malathion [1, 10]: <0.05 % (w/w) | Malathion Purity [1, 10]: 97.4 % (w/w) | MeOOSPO in malathion [1, 10]: 0.05 % (w/w) | MeOOSPS in malathion [1, 10]: 0.2 % (w/w) | MeOSSPO in malathion [1, 10]: <0.02 % (w/w) | Methyl malathion in malathion [1, 10]: 0.08 % (w/w)

CCOC(=O)CC(SP(=O)(OC)SC)C(=O)OCC (centres unmarked) [Isomalathion]
pulmonary toxicity [2]: exhibit pulmonary toxicity | activity against acetylcholinesterase as compared with malathion [3]: approximately 1,000 times | death in people [4]: cause death in people

CCOC(=O)CC(SP(=O)(OC)OC)C(=O)OCC (centres unmarked) [Malaoxon]
inhibition of cholinesterase enzymes [5]: inhibits cholinesterase enzymes

COP(=O)(OC)SC [MeOOSPO, O,O,S-trimethyl phosphorothioate]
pulmonary toxicity [2]: exhibit pulmonary toxicity

CCOC(=O)CC(SP(=S)(OC)OCC)C(=O)OCC (stereo not drawn) [O,O-methyl,ethyl-S-(1,2-dicarboethoxy)ethyl-phosphorodithioate]
pulmonary toxicity [2]: exhibit pulmonary toxicity

CCOC(=O)CC(SP(=S)(OC)OC)C(=O)OCC (centres unmarked) [malathion prepared by the process of the invention] [[(dimethoxyphosphinothioyl)thio]butanedioic acid diethyl ester]
Malathion Purity ([1]; Storage at 5° C. for 3 months): greater than 98.5 % (w/w) | Malathion Purity [1, 8]: greater than 98.5 % (w/w) | Malathion Purity [1, 9]: greater than 98.5 % (w/w)

CCOC(=O)CC(SP(=S)(OC)OC)C(=O)OCC (centres unmarked) [malathion, [(dimethoxyphosphinothioyl)thio]butanedioic acid diethyl ester]
isomalathion content of malathion ([6]; after storage for 6 months at 40° C.): 0.45% | isomalathion content of malathion ([6]; before storage): 0.2% | increase in toxicity as measured by LD50 in mice [7]: 35%

From patent US8957238B2, “Process for preparing malathion for pharmaceutical use” (priority 2005, dated 2015)
